Measurements: patent US11382918B2, “Methods for treating Huntington's Disease” (PTC Therapeutics, Inc., priority 2017, dated 2022)
pIC50: −log10 of the molar value. Counter-ions that a name gives are not always drawn.

Test system: Endogenous Huntingtin Protein (HTT)
Test: Endogenous Huntingtin Protein Assay (ELISA-based MSD electrochemiluminescence)
Type: cell-based
Settings: Table 1
How it was run: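 MSD electrochemiluminescence sandwich ELISA for endogenous HTT: sample lysates captured overnight at 4 °C on MW1 (expanded polyglutamine) or MAB2166 antibody. Detection used rabbit monoclonal #5656S, then goat anti-rabbit SULFO-TAG antibody, each 1 h at room temperature.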

| Structure (SMILES) | pIC50 |
| --- | --- |
| CCc1nc(C)cn2nc(-c3cc(=O)n4cc(C5CCNCC5)cc(C)c4n3)cc12 [compound 771, 2-(4-ethyl-6-methylpyrazolo[1,5-a]pyrazin-2-yl)-9-methyl-7-(piperidin-4-yl)-4H-pyrido[1,2-a]pyrimidin-4-one] | 6.00 to 6.30 |
| CCN(CC)C1CCN(c2ccc3nc(-c4cc5c(C)nc(C)cn5n4)cc(=O)n3c2)CC1 [compound 451, 7-[4-(diethylamino)piperidin-1-yl]-2-(4,6-dimethylpyrazolo[1,5-a]pyrazin-2-yl)-4H-pyrido[1,2-a]pyrimidin-4-one] | 4.48 to 5.52 |
| COc1ccc(-c2cc(=O)n3cc(N4CCC(N(C)C)CC4)cc(C)c3n2)cc1OC [compound 261, 2-(3,4-dimethoxyphenyl)-7-[4-(dimethylamino)piperidin-1-yl]-9-methyl-4H-pyrido[1,2-a]pyrimidin-4-one] | 4.48 to 5.52 |
| Cc1cc(N2CCN[C@H](C)C2)cn2c(=O)cc(-c3ccc4nn(C)cc4c3)nc12 [compound 755, 9-methyl-2-(2-methyl-2H-indazol-5-yl)-7-[(3R)-3-methylpiperazin-1-yl]-4H-pyrido[1,2-a]pyrimidin-4-one] | 5.52 to 6.00 |
| Cc1cn2cc(-c3cc(=O)n4cc(C5CCN(CCO)CC5)ncc4n3)ccc2n1 [compound 581, 7-[1-(2-hydroxyethyl)piperidin-4-yl]-2-(2-methylimidazo[1,2-a]pyridin-6-yl)-4H-pyrazino[1,2-a]pyrimidin-4-one] | 5.52 to 6.00 |
| Cc1nc(-c2cc(=O)n3cc(C4=CCNCC4)ccc3n2)cc2cn(C)nc12 [compound 862, 2-(2,7-dimethyl-2H-pyrazolo[3,4-c]pyridin-5-yl)-7-(1,2,3,6-tetrahydropyridin-4-yl)-4H-pyrido[1,2-a]pyrimidin-4-one hydrochloride (1:2)] | 5.52 to 6.00 |
| Cc1cn2cc(-c3cc(=O)n4cc(N5C[C@@H](C)N[C@@H](C)C5)ccc4n3)cc(C(F)(F)F)c2n1 [compound 736, 7-[(3R,5S)-3,5-dimethylpiperazin-1-yl]-2-[2-methyl-8-(trifluoromethyl)imidazo[1,2-a]pyridin-6-yl]-4H-pyrido[1,2-a]pyrimidin-4-one] | 4.48 to 5.52 |
| Cc1nc2ccc(-c3cc(=O)n4cc(N5CCNCC5)ccc4n3)cn2c1C [compound 125, 2-(2,3-dimethylimidazo[1,2-a]pyridin-6-yl)-7-(piperazin-1-yl)-4H-pyrido[1,2-a]pyrimidin-4-one] | 4.48 to 5.52 |
| COc1ccc(-c2cc(=O)n3cc(N4CCNCC4)ccc3n2)cn1 [compound 88, 2-(6-methoxypyridin-3-yl)-7-(piperazin-1-yl)-4H-pyrido[1,2-a]pyrimidin-4-one] | 4.48 to 5.52 |
| Cc1cn2cc(-c3cc(=O)n4cc(C5CCN(C(C)C)CC5)ncc4n3)ccc2n1 [compound 627, 2-(2-methylimidazo[1,2-a]pyridin-6-yl)-7-[1-(propan-2-yl)piperidin-4-yl]-4H-pyrazino[1,2-a]pyrimidin-4-one] | 5.52 to 6.00 |
| Cc1cc(-c2cc(=O)n3cc(C4CCNCC4)ccc3n2)cc2cn(C)nc12 [compound 739, 2-(2,7-dimethyl-2H-indazol-5-yl)-7-(piperidin-4-yl)-4H-pyrido[1,2-a]pyrimidin-4-one] | 6.00 to 6.30 |
| C[C@H]1CN(c2ccc3nc(-c4ccc5c(cnn5C)c4)cc(=O)n3c2)CCN1 [compound 553, 2-(1-methyl-1H-indazol-5-yl)-7-[(3S)-3-methylpiperazin-1-yl]-4H-pyrido[1,2-a]pyrimidin-4-one] | 4.48 to 5.52 |
| Cc1nc2ccc(-c3cc(=O)n4cc(N5CCNCC5)ccc4n3)cc2o1 [compound 133, 2-(2-methyl-1,3-benzoxazol-6-yl)-7-(piperazin-1-yl)-4H-pyrido[1,2-a]pyrimidin-4-one] | 6.00 to 6.30 |
| CCc1nc(C)cn2nc(-c3cc(=O)n4cc(N5CCCN(C)CC5)ccc4n3)cc12 [compound 636, 2-(4-ethyl-6-methylpyrazolo[1,5-a]pyrazin-2-yl)-7-(4-methyl-1,4-diazepan-1-yl)-4H-pyrido[1,2-a]pyrimidin-4-one] | 4.48 to 5.52 |
| Cc1cn2nc(-c3cc(=O)n4cc(C5CCN(CCO)CC5)ccc4n3)cc2c(C)n1 [compound 530, 2-(4,6-dimethylpyrazolo[1,5-a]pyrazin-2-yl)-7-[1-(2-hydroxyethyl)piperidin-4-yl]-4H-pyrido[1,2-a]pyrimidin-4-one] | 4.48 to 5.52 |
| CCc1nc(C)cn2nc(-c3cc(=O)n4cc(C5=CCNCC5)ccc4n3)cc12 [compound 763, 2-(4-ethyl-6-methylpyrazolo[1,5-a]pyrazin-2-yl)-7-(1,2,3,6-tetrahydropyridin-4-yl)-4H-pyrido[1,2-a]pyrimidin-4-one] | 6.30 to 7.00 |
| COc1cc(OS(=O)(=O)C(F)(F)F)ccc1-c1cc(=O)n2cc(C3=CCN(C(=O)OC(C)(C)C)CC3)ccc2n1 [compound 848, tert-butyl 4-[2-(2-methoxy-4-{[(trifluoromethyl)sulfonyl]oxy}phenyl)-4-oxo-4H-pyrido[1,2-a]pyrimidin-7-yl]-3,6-dihydropyridine-1(2H)-carboxylate] | 4.48 to 5.52 |
| CCN1CC=C(c2cn3c(=O)cc(-c4ccc5nc(C)cn5n4)nc3cn2)CC1 [compound 842, 7-(1-ethyl-1,2,3,6-tetrahydropyridin-4-yl)-2-(2-methylimidazo[1,2-b]pyridazin-6-yl)-4H-pyrazino[1,2-a]pyrimidin-4-one] | 4.48 to 5.52 |

| Structure (SMILES) | pIC50 |
| --- | --- |
| Cn1cc2cc(-c3cc(=O)n4cc(C5CCNCC5)ccc4n3)ccc2n1 [compound 606, 2-(2-methyl-2H-indazol-5-yl)-7-(piperidin-4-yl)-4H-pyrido[1,2-a]pyrimidin-4-one] | 4.48 to 5.52 |
| Cc1cn2nc(-c3cc(=O)n4cc(N5C[C@@H](C)N[C@@H](C)C5)ccc4n3)cc2cn1 [compound 442, 7-[(3R,5S)-3,5-dimethylpiperazin-1-yl]-2-(6-methylpyrazolo[1,5-a]pyrazin-2-yl)-4H-pyrido[1,2-a]pyrimidin-4-one] | 4.48 to 5.52 |
| Cc1cn2cc(-c3cc(=O)n4cc(N5CCNCC5)ccc4n3)cc(Cl)c2n1 [compound 287, 2-(8-chloro-2-methylimidazo[1,2-a]pyridin-6-yl)-7-(piperazin-1-yl)-4H-pyrido[1,2-a]pyrimidin-4-one] | 6.30 to 7.00 |
| O=c1cc(-c2cncc(Cl)c2)nc2ccc(N3CCNCC3)cn12 [compound 94, 2-(5-chloropyridin-3-yl)-7-(piperazin-1-yl)-4H-pyrido[1,2-a]pyrimidin-4-one] | 4.48 to 5.52 |
| Cc1cn2cc(-c3cc(=O)n4cc(N5CCNCC5)ccc4n3)cc(C)c2n1 [compound 141, 2-(2,8-dimethylimidazo[1,2-a]pyridin-6-yl)-7-(piperazin-1-yl)-4H-pyrido[1,2-a]pyrimidin-4-one] | 5.52 to 6.00 |
| Cc1cc(-c2cc(=O)n3cc(N4CCNCC4)ccc3n2)cc2cn(C)nc12 [compound 738, 2-(2,7-dimethyl-2H-indazol-5-yl)-7-(piperazin-1-yl)-4H-pyrido[1,2-a]pyrimidin-4-one] | 6.30 to 7.00 |
| CN1CCN(c2ccc3nc(-c4ccc5c(cnn5C)c4)cc(=O)n3c2)CC1 [compound 489, 2-(1-methyl-1H-indazol-5-yl)-7-(4-methylpiperazin-1-yl)-4H-pyrido[1,2-a]pyrimidin-4-one] | 4.48 to 5.52 |
| Cc1cc(C2=CC(C)(C)NC(C)(C)C2)cn2c(=O)cc(-c3ccc4nn(C)cc4c3)nc12 [compound 865, 9-methyl-2-(2-methyl-2H-indazol-5-yl)-7-(2,2,6,6-tetramethyl-1,2,3,6-tetrahydropyridin-4-yl)-4H-pyrido[1,2-a]pyrimidin-4-one] | 4.48 to 5.52 |
| Cc1cn2ccc(-c3cc(=O)n4cc(N5CCN(C)CC5)ccc4n3)cc2n1 [compound 557, 2-(2-methylimidazo[1,2-a]pyridin-7-yl)-7-(4-methylpiperazin-1-yl)-4H-pyrido[1,2-a]pyrimidin-4-one] | 4.48 to 5.52 |
| Cc1cn2nc(-c3cc(=O)n4cc(N5CCN[C@@H](C)C5)ccc4n3)cc2c(C)n1 [compound 121, 2-(4,6-dimethylpyrazolo[1,5-a]pyrazin-2-yl)-7-[(3S)-3-methylpiperazin-1-yl]-4H-pyrido[1,2-a]pyrimidin-4-one] | 4.48 to 5.52 |
| Cc1nc2c(F)cc(-c3cc(=O)n4cc(N5CCN(C)CC5)ccc4n3)cc2o1 [compound 308, 2-(4-fluoro-2-methyl-1,3-benzoxazol-6-yl)-7-(4-methylpiperazin-1-yl)-4H-pyrido[1,2-a]pyrimidin-4-one] | 6.00 to 6.30 |
| CCN1CC=C(c2ccc3nc(-c4ccc5c(cnn5C)c4)cc(=O)n3c2)CC1 [compound 463, 7-(1-ethyl-1,2,3,6-tetrahydropyridin-4-yl)-2-(1-methyl-1H-indazol-5-yl)-4H-pyrido[1,2-a]pyrimidin-4-one] | 4.48 to 5.52 |
| CCN1CCC(c2cn3c(=O)cc(-c4cc(C)c5nn(C)cc5c4)nc3c(C)n2)CC1 [compound 874, 2-(2,7-dimethyl-2H-indazol-5-yl)-7-(1-ethylpiperidin-4-yl)-9-methyl-4H-pyrazino[1,2-a]pyrimidin-4-one hydrochloride (1:1)] | 6.30 to 7.00 |
| CCc1nc(C)cn2nc(-c3cc(=O)n4cc(C5CCNCC5)ccc4n3)cc12 [compound 656, 2-(4-ethyl-6-methylpyrazolo[1,5-a]pyrazin-2-yl)-7-(piperidin-4-yl)-4H-pyrido[1,2-a]pyrimidin-4-one] | 6.30 to 7.00 |
| C[C@H]1CN(c2ccc3nc(-c4ccc5nn(C)cc5c4)cc(=O)n3c2)CCN1 [compound 138, 2-(2-methyl-2H-indazol-5-yl)-7-[(3S)-3-methylpiperazin-1-yl]-4H-pyrido[1,2-a]pyrimidin-4-one] | 5.52 to 6.00 |
| C[C@H]1CN(c2ccc3nc(-c4cnn(C)c4)cc(=O)n3c2)CCN1 [compound 191, 7-[(3S)-3-methylpiperazin-1-yl]-2-(1-methyl-1H-pyrazol-4-yl)-4H-pyrido[1,2-a]pyrimidin-4-one] | 4.48 to 5.52 |
| CCN1CC=C(c2cc(C)c3nc(-c4cc5c(C)nc(C)cn5n4)cc(=O)n3c2)CC1 [compound 482, 2-(4,6-dimethylpyrazolo[1,5-a]pyrazin-2-yl)-7-(1-ethyl-1,2,3,6-tetrahydropyridin-4-yl)-9-methyl-4H-pyrido[1,2-a]pyrimidin-4-one] | 4.48 to 5.52 |
